Experimental findings from patent publication US20230295197A1, “STAT5 and STAT6 Degraders and Uses Thereof” (REGENTS OF THE UNIVERSITY OF MICHICAN, priority 2022, published 2023) are described below.

SMILES strings stand for the structures. Like-named read-outs stand apart in the source and are kept apart here.

The test deals with T1, STAT6 (Homo sapiens, UniProt P42226).
T1 construct: endogenous in cells; host or cells: MOLM-16, KU-812, SKNO1, MB231, L1236
T1 sequence (P42226 1-847): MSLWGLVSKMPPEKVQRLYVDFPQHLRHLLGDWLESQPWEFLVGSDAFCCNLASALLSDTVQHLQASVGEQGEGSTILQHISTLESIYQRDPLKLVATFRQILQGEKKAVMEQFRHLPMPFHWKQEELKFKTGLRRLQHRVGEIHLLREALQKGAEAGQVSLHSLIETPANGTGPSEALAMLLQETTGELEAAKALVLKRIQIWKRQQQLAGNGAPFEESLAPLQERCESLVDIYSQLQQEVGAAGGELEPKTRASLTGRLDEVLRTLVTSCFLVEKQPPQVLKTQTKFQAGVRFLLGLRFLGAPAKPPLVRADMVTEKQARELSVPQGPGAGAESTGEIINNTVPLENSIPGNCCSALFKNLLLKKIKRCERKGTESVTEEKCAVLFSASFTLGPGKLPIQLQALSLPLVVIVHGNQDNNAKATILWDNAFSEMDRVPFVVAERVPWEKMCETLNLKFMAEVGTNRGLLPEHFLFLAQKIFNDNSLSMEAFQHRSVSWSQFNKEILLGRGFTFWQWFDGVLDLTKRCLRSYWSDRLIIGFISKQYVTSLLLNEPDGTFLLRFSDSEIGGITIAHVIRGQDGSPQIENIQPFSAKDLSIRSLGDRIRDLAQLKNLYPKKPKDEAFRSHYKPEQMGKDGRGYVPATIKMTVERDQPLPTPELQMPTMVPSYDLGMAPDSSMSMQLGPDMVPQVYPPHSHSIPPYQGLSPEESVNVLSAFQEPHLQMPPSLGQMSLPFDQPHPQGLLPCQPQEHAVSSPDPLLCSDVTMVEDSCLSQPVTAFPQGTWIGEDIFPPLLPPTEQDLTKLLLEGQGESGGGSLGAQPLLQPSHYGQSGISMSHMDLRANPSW
Put plainly: Immunoblotting (Western blot) analysis of STAT6 degradation efficiency of degraders in treated cells. It is filed as cell-based. The gist of the method:
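Cells (~1 million per point) treated with compounds at indicated concentrations and times, lysed in RIPA with protease/phosphatase inhibitors; 20-40 μg protein run on SDS-PAGE and blotted to PVDF. STAT6 or STAT5 rabbit mAbs with GAPDH loading control, IRDye secondaries; near-infrared fluorescence scan, band intensity quantified.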
For orientation: In western blotting, separated proteins are transferred to a membrane and probed.

Where [1] appears, read: MOLM-16 cells, class symbols, read-out: DC50 S6 MOLM-16.
[2] abbreviates: L1236 cells, read-out: DC50 S6 L1236.

What is called DC50 is the concentration at which degradation of the target reaches its halfway point. As for `CC(C)(C)[C@H](NC(=O)c1cc2cc(C(F)(F)P(=O)(O)O)ccc2s1)C(=O)N1Cc2cc(OCC(=O)NCCCCCCCCCC#Cc3ccc4c(c3)C(=O)N(C3CCC(=O)NC3=O)C4=O)ccc2C[C@H]1C(=O)N1CCC[C@H](c2ccccc2)C1` (stereo partly drawn) [Compound 562, ((2-(((2S)-1-((3S)-7-(2-((11-(2-(2,6-dioxopiperidin-3-yl)-1,3-dioxoisoindolin-5-yl)undec-10-yn-1-yl)amino)-2-oxoethoxy)-3-((R)-3-phenylpiperidine-1-carbonyl)-3,4-dihydroisoquinolin-2(1H)-yl)-3,3-dimethyl-1-oxobutan-2-yl)carbamoyl)benzo[b]thiophen-5-yl)difluoromethyl)phosphonic acid], the DC50 under setting [1] is > 10 µM. With `O=C1CCC(N2Cc3c(C#CCCCCCC(=O)N4CC[C@H]5CC[C@@H](C(=O)N6CC[C@@H](c7ccccc7)C6)N5C(=O)[C@@H](NC(=O)c5cc6cc(C(F)(F)P(=O)(O)O)ccc6s5)C4)cccc3C2=O)C(=O)N1` (stereo partly drawn) [Compound 563, ((2-(((5S,8S,10aR)-3-(8-(2-(2,6-dioxopiperidin-3-yl)-1-oxoisoindolin-4-yl)oct-7-ynoyl)-6-oxo-8-((S)-3-phenylpyrrolidine-1-carbonyl)decahydropyrrolo[1,2-a][1,5]diazocin-5-yl)carbamoyl)benzo[b]thiophen-5-yl)difluoromethyl)phosphonic acid], the DC50 is > 10 µM under setting [2] and > 10 µM under setting [1]. Take `O=C1CCC(N2Cc3c(C#CCCCCCC(=O)N4CC[C@H]5CC[C@@H](C(=O)N6CCOC(c7ccc(F)c(Cl)c7)C6)N5C(=O)[C@@H](NC(=O)c5cc6cc(C(F)(F)P(=O)(O)O)ccc6s5)C4)cccc3C2=O)C(=O)N1` (stereo partly drawn) [Compound 564, ((2-(((5S,8S,10aR)-8-(2-(3-chloro-4-fluorophenyl)morpholine-4-carbonyl)-3-(8-(2-(2,6-dioxopiperidin-3-yl)-1-oxoisoindolin-4-yl)oct-7-ynoyl)-6-oxodecahydropyrrolo[1,2-a][1,5]diazocin-5-yl)carbamoyl)benzo[b]thiophen-5-yl)difluoromethyl)phosphonic acid]: the half-maximal degradation concentration (DC50) by setting is: under setting [2], > 10 µM; under setting [1], > 10 µM. Take `CC(C)(C)[C@H](NC(=O)c1cc2cc(C(F)(F)P(=O)(O)O)ccc2s1)C(=O)N1C[C@@H](NC(=O)CCCCCC#Cc2cccc3c2CN(C2CCC(=O)NC2=O)C3=O)C[C@H]1C(=O)N1CCO[C@H](c2ccccc2)C1` (stereo partly drawn) [Compound 565, ((2-(((2S)-1-((2S,4S)-4-(8-(2-(2,6-dioxopiperidin-3-yl)-1-oxoisoindolin-4-yl)oct-7-ynamido)-2-((R)-2-phenylmorpholine-4-carbonyl)pyrrolidin-1-yl)-3,3-dimethyl-1-oxobutan-2-yl)carbamoyl)benzo[b]thiophen-5-yl)difluoromethyl)phosphonic acid]: the DC50 was > 10 µM under setting [2] and > 10 µM under setting [1]. `CC(C)(C)[C@H](NC(=O)c1cc2cc(C(F)(F)P(=O)(O)O)ccc2s1)C(=O)N1C[C@@H](NC(=O)CCCCCC#Cc2ccc3c(c2)CN(C2CCC(=O)NC2=O)C3=O)C[C@H]1C(=O)N1CCO[C@H](c2ccccc2)C1` (stereo partly drawn) [Compound 566, ((2-(((2S)-1-((2S,4S)-4-(8-(2-(2,6-dioxopiperidin-3-yl)-1-oxoisoindolin-5-yl)oct-7-ynamido)-2-((R)-2-phenylmorpholine-4-carbonyl)pyrrolidin-1-yl)-3,3-dimethyl-1-oxobutan-2-yl)carbamoyl)benzo[b]thiophen-5-yl)difluoromethyl)phosphonic acid]: the DC50 was > 10 µM under setting [2] and > 10 µM under setting [1]. With `Cc1ncsc1-c1ccc([C@H](CC(=O)NCCCCCCC(=O)N[C@H]2C[C@@H](C(=O)N3CCO[C@H](c4ccccc4)C3)N(C(=O)[C@@H](NC(=O)c3cc4cc(C(F)(F)P(=O)(O)O)ccc4s3)C(C)(C)C)C2)NC(=O)[C@@H]2C[C@@H](O)CN2C(=O)[C@@H](NC(=O)C2(F)CC2)C(C)(C)C)cc1` [Compound 569, (difluoro(2-(((S)-1-((2S,4S)-4-(7-((S)-3-((2S,4R)-1-((S)-2-(1-fluorocyclopropane-1-carboxamido)-3,3-dimethylbutanoyl)-4-hydroxypyrrolidine-2-carboxamido)-3-(4-(4-methylthiazol-5-yl)phenyl)propanamido)heptanamido)-2-((R)-2-phenylmorpholine-4-carbonyl)pyrrolidin-1-yl)-3,3-dimethyl-1-oxobutan-2-yl)carbamoyl)benzo[b]thiophen-5-yl)methyl)phosphonic acid], under setting [1], the DC50 is > 10 µM. In the case of `Cc1ncsc1-c1ccc([C@H](CC(=O)NCCCCCCCC(=O)N[C@H]2C[C@@H](C(=O)N3CCO[C@H](c4ccccc4)C3)N(C(=O)[C@@H](NC(=O)c3cc4cc(C(F)(F)P(=O)(O)O)ccc4s3)C(C)(C)C)C2)NC(=O)[C@@H]2C[C@@H](O)CN2C(=O)[C@@H](NC(=O)C2(F)CC2)C(C)(C)C)cc1` [Compound 570, (difluoro(2-(((S)-1-((2S,4S)-4-(8-((S)-3-((2S,4R)-1-((S)-2-(1-fluorocyclopropane-1-carboxamido)-3,3-dimethylbutanoyl)-4-hydroxypyrrolidine-2-carboxamido)-3-(4-(4-methylthiazol-5-yl)phenyl)propanamido)octanamido)-2-((R)-2-phenylmorpholine-4-carbonyl)pyrrolidin-1-yl)-3,3-dimethyl-1-oxobutan-2-yl)carbamoyl)benzo[b]thiophen-5-yl)methyl)phosphonic acid], under setting [1], the DC50 was > 10 µM. The same measure, in the same setting: next, `Cc1ncsc1-c1ccc([C@H](CC(=O)NCCCCCCCCC(=O)N[C@H]2C[C@@H](C(=O)N3CCO[C@H](c4ccccc4)C3)N(C(=O)[C@@H](NC(=O)c3cc4cc(C(F)(F)P(=O)(O)O)ccc4s3)C(C)(C)C)C2)NC(=O)[C@@H]2C[C@@H](O)CN2C(=O)[C@@H](NC(=O)C2(F)CC2)C(C)(C)C)cc1` [Compound 571, (difluoro(2-(((S)-1-((2S,4S)-4-(9-((S)-3-((2S,4R)-1-((S)-2-(1-fluorocyclopropane-1-carboxamido)-3,3-dimethylbutanoyl)-4-hydroxypyrrolidine-2-carboxamido)-3-(4-(4-methylthiazol-5-yl)phenyl)propanamido)nonanamido)-2-((R)-2-phenylmorpholine-4-carbonyl)pyrrolidin-1-yl)-3,3-dimethyl-1-oxobutan-2-yl)carbamoyl)benzo[b]thiophen-5-yl)methyl)phosphonic acid]: > 10 µM; `Cc1ncsc1-c1ccc([C@H](CC(=O)NCCCCCCCCCC(=O)N[C@H]2C[C@@H](C(=O)N3CCO[C@H](c4ccccc4)C3)N(C(=O)[C@@H](NC(=O)c3cc4cc(C(F)(F)P(=O)(O)O)ccc4s3)C(C)(C)C)C2)NC(=O)[C@@H]2C[C@@H](O)CN2C(=O)[C@@H](NC(=O)C2(F)CC2)C(C)(C)C)cc1` [Compound 572, (difluoro(2-(((S)-1-((2S,4S)-4-(10-((S)-3-((2S,4R)-1-((S)-2-(1-fluorocyclopropane-1-carboxamido)-3,3-dimethylbutanoyl)-4-hydroxypyrrolidine-2-carboxamido)-3-(4-(4-methylthiazol-5-yl)phenyl)propanamido)decanamido)-2-((R)-2-phenylmorpholine-4-carbonyl)pyrrolidin-1-yl)-3,3-dimethyl-1-oxobutan-2-yl)carbamoyl)benzo[b]thiophen-5-yl)methyl)phosphonic acid]: > 10 µM.
